Assay results published in US20250177391A1, “INHIBITORS OF DDR1 AND DDR2 FOR THE TREATMENT OF ARTHRITIS” (President and Fellows of Harvard College, priority 2022, published 2025).
Converted amounts (≈) assume the structure as drawn. “Also recorded” adds a separate entry of the source.

Tests used:
Stability in plasma = type: in vitro ADME; conditions: all animals
[1] = system: 97 kinases (90 WT kinase and 7 mutants); experiment: Kinase selectivity profiling (ScanEDGE, DiscoveRx) competition binding, qPCR readout; conditions: for Selectivity Score S(1) / Selectivity Score S(10) / Selectivity Score S(35): number of hits/number of assays, excluding mutants, 1000 nM; for # of Hits, S(35) / # of Hits, S(10) / # of Hits, S(1): screened at 1000 nM; for # of Hits, S(35): kinases inhibited by >65%; for # of Hits, S(10): kinases inhibited by >90%; for # of Hits, S(1): kinases inhibited by >99%
Description: (§1) Compounds that bind the kinase active site and directly (sterically) or indirectly (allosterically) prevent kinase binding to the immobilized ligand, will reduce the amount of kinase captured on the solid support. […] Screening “hits” are identified by measuring the amount of kinase captured in test versus control samples by using a quantitative qPCR method that detects the associated DNA label. Dissociation constants (Kds) for test compound-kinase interactions can be calculated by measuring the amount of kinase captured on the solid support as a function of the test compound concentration.
(§2) Kinase-tagged T7 phage strains were grown in parallel in 24-well blocks in an E. coli host derived from the BL21 strain. E. coli were grown to log-phase and infected with T7 phage from a frozen stock (multiplicity of infection=0.4) and incubated with shaking at 32° C. until lysis (90-150 minutes). The lysates were centrifuged (6,000×g) and filtered (0.2 μm) to remove cell debris. The remaining kinases were produced in HEK-293 cells and subsequently tagged with DNA for qPCR detection. Streptavidin-coated magnetic beads were treated with biotinylated small molecule ligands for 30 minutes at room temperature to generate affinity resins for kinase assays. The liganded beads were blocked with excess biotin and washed with blocking buffer (SeaBlock (Pierce), 1% BSA, 0.05% Tween 20, 1 mM DTT) to remove unbound ligand and to reduce non-specific phage binding. Binding reactions were assembled by combining kinases, liganded affinity beads, and test compounds in 1x binding buffer (20% SeaBlock, […], 0.05% Tween 20, 6 mM DTT). Test compounds were prepared as 40x stocks in 100% DMSO and directly diluted into the assay. All reactions were performed in polypropylene 384-well plates in a final volume of 0.02 mL. The assay plates were incubated at room temperature with shaking for 1 hour and the affinity beads were washed with wash buffer (1×PBS, 0.05% Tween 20). The beads were then re-suspended in elution buffer (1×PBS, 0.05% Tween […] non-biotinylated affinity ligand) and incubated at room temperature with shaking for 30 minutes. The kinase concentration in the eluates was measured by qPCR.
(§3) The compounds were screened at 1000 nM, and results for primary screen binding interactions were determined as “% Ctrl”. % Ctrl=[(test compound signal−positive control signal)/(negative control signal−positive control signal)]*100. Negative control was 100% DMSO. Test compounds were Compounds 1-4. Positive control was a control compound.
Selectivity Score or S-score is a quantitative measure of compound selectivity for DDR2. It was calculated by dividing the number of kinases that compounds bind to by the total number of distinct kinases tested, excluding mutant variants. S=number of hits/number of assays. % Ctrl was used as a potency threshold. Selectivity score values of CS analogs provided in Table 2 reflect the number of kinases inhibited by >65% (S35), >90% (S10), or 99% (S1) by Compounds 1-4.

Liver S9 stability, rat = type: in vitro ADME; conditions: SD
Liver S9 stability, dog = type: in vitro ADME; conditions: beagle
DDR2 (h) = DDR2 (h) (Homo sapiens (Human), UniProt Q16832); experiment: DDR2 kinase inhibition, [γ-33P]-ATP filter assay; type: biochemical
Procedure: (§4) DDR2 (h) was incubated with 8 mM MOPS pH 7.0, 0.2 mM EDTA, 250 μM KKSRGDYMTMQIG (SEQ TD NO: 2), 10 mM MnCl2, 10 mM magnesium acetate and [γ-33P]-ATP (specific activity and concentration as required). The reaction was initiated by the addition of the Mg/ATP mix. After incubation for 40 minutes at room temperature, the reaction was stopped by the addition of phosphoric acid to a concentration of 0.5%. An aliquot of the reaction was then spotted onto a filter and washed four times for 4 minutes in 0.425% phosphoric acid and once in methanol prior to drying and scintillation counting.

[2] = Liver S9 stability (SD rat, beagle, human), overall; type: in vitro ADME
Stability in HBSS buffer = type: physicochemical
[3] = Stability in simulated synovial fluid; type: physicochemical
[4] = PK following IV dosing in male SD rats; conditions: rat, in vivo, IV 1 mg/kg
Caco-2 permeability = type: in vitro ADME; conditions: human, Caco-2; Bi-directional; read-out: Caco-2 permeability, bidirectional efflux ratio
Caco-2 = Caco-2 permeability; type: in vitro ADME
DDR1 (h) = DDR1 (h) (Homo sapiens (Human), UniProt Q08345); experiment: DDR1 kinase inhibition, [γ-33P]-ATP filter assay; type: biochemical
Procedure: as §4, with “DDR1” for “DDR2”, “KKKSPGEYVNIEFG” for “KKSRGDYMTMQIG”, “ID” for “TD”, “1),” for “2), 10 mM MnCl2,”

[5] = Liver S9 stability, human; type: in vitro ADME
p38-alpha = p38-alpha (Homo sapiens (Human), UniProt Q16539); experiment: Binding to p38-alpha, % of DMSO control (kinase binding screen); conditions: smaller numbers indicate stronger binding; screened at 1000 nM
Description: as §1, §2, §3
Table 3 provides binding affinity scores for p38-alpha as a percent relative to DMSO control. Smaller numbers indicate stronger binding.

[6] = Solubility in pH 7.4 phosphate buffer; type: physicochemical; conditions: aqueous buffer
[7] = system: articular cartilage of mouse knee joints; experiment: DMM surgery injurious mouse model of osteoarthritis, knee articular cartilage; type: in vivo; conditions: for Average articular cartilage score: treatment from 4 weeks after surgery
Procedure: Based on a pilot experiment,^1 the sample size of minimum 6 is required by the power analysis to achieve the specified confidence interval (95%) with at least 50% reduction of the score in the treatment group. Mouse knee joints were subjected to DMM surgery. Four weeks following the surgery, mice were treated with compound 3. Significant disparity was found in the progression of articular cartilage degeneration in knee joints with or without the treatment of compound 3 (FIG. 1).
The condition of the articular cartilage was also evaluated by the scoring system.^3 At 8 weeks after DMM surgery, the average scores for mice without and with treatment using compound 3 were 2.50 and 1.00, respectively. At 12 weeks following DMM surgery, the average scores were 4.75 for mice not treated with compound 3 and 2.83 for mice treated with compound 3. […] In addition, osteophytes and other abnormal morphology were not observed in the subchondral bone and synovial tissue in mice with or without the treatment with compound 3.

Mmp-13 = experiment: Protein expression of Mmp-13 in articular cartilage after DMM (staining); type: in vivo, mouse; conditions: 8 weeks after DMM
Description: (§5) Inhibitory induction of Ddr2 and Mmp-13 in articular cartilage of knee joints was observed after treatment with the compound 3. The protein expressions of Ddr2 and Mmp-13 were examined in the articular cartilage of mouse knee joints at 8 weeks after DMM, with or without the treatment with compound 3.

DDR2 = experiment: Protein expression of DDR2 in articular cartilage after DMM (staining); type: in vivo, mouse; conditions: 8 weeks after DMM
Description: as §5

Chain of p38-alpha (Q16539 whole entry): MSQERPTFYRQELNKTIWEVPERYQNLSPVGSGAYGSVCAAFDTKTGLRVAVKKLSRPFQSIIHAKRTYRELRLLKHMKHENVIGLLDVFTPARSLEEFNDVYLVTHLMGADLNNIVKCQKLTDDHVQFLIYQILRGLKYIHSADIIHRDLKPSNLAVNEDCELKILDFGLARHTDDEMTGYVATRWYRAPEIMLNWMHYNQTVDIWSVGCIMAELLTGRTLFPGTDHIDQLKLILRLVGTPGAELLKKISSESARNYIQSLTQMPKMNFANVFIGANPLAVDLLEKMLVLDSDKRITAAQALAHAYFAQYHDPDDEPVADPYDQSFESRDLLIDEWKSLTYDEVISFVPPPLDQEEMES
Chain of DDR1 (h) (Q08345 19-913): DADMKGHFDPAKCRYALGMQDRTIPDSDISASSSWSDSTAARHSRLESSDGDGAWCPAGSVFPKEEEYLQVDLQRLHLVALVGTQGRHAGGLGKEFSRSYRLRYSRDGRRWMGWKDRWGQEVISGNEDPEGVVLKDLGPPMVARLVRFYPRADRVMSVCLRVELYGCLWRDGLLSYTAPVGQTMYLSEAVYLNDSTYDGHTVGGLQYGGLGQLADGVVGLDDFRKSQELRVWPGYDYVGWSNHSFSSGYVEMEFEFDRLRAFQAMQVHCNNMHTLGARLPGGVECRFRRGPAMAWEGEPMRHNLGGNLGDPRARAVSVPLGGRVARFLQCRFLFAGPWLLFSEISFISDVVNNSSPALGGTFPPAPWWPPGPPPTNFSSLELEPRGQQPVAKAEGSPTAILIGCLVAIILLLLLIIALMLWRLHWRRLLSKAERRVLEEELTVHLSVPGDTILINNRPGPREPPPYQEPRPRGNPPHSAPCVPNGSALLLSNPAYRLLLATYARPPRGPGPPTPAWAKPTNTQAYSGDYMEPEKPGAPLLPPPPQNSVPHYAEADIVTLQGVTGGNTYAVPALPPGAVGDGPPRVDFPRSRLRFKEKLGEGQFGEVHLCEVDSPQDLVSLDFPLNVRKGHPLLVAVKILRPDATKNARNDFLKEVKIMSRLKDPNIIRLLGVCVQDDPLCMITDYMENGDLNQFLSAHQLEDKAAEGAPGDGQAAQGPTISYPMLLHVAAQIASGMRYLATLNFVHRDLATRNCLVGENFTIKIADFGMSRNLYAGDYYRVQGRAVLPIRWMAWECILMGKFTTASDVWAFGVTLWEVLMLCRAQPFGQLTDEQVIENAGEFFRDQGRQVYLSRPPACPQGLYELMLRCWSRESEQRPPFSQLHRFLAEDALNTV
Chain of DDR2 (h) (Q16832 22-855): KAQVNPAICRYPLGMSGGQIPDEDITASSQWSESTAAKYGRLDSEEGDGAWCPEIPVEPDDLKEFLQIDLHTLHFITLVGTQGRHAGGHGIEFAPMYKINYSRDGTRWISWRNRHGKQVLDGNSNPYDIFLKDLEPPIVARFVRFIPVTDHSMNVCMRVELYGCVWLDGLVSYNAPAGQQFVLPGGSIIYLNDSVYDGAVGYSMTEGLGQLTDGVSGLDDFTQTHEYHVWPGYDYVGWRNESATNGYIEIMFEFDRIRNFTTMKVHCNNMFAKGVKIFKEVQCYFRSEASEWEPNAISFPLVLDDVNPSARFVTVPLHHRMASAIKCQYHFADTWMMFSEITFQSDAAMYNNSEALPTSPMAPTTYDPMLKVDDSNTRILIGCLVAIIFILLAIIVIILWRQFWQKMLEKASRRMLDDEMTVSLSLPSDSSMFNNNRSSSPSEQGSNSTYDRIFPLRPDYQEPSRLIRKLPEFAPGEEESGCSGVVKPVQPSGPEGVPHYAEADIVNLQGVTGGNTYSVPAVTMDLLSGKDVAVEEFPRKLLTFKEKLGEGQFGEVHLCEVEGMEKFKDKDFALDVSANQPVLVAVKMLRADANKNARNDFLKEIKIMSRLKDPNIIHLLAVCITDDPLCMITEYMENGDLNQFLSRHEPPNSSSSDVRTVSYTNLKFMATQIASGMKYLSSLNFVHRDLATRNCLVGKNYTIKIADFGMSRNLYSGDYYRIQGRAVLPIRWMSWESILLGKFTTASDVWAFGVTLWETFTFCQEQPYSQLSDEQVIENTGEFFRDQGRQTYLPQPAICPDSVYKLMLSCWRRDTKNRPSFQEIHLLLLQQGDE

Structure (SMILES) | Stability in plasma (Stability in plasma) | Selectivity Score S(1) [1] | Selectivity Score S(10) [1] | Selectivity Score S(35) [1] | # of Hits, S(35) [1] | # of Hits, S(10) [1] | # of Hits, S(1) [1] | IC50 (DDR2 (h)) [nM] | Liver S9 stability (in words) [2] | Stability in HBSS (buffer) (Stability in HBSS buffer) [min in buffer] | Stability in simulated synovial fluid [3] [days] | Caco-2 unidirectional permeability (in words) (Caco-2) | IC50 (DDR1 (h)) [nM] | Binding affinity score for p38-alpha as percent relative to DMSO control (p38-alpha) [% Ctrl] | solubility [6] [µM] | also measured
Cc1ccc(O)cc1Nc1ccnc(Nc2cccc(S(C)(=O)=O)c2)n1 [Compound 1, 4-methyl-3-[[2-(3-methylsulfonylanilino)pyrimidin-4-yl]amino]phenol] | >360 min (all | 0.078 | 0.244 | 0.322 | 29 | 22 | 7 | 260 | Rapid clearance | >120 | >5 | Very high | 13 | 0.5 | 16 (≈ 5.93 µg/mL) | half-life (Liver S9 stability, rat): 20 min; half-life (Liver S9 stability, dog): < 10 min; AUC(0-t) [4]: 122 ng·h/mL; C0 [4]: 548 ng/mL; clearance [4]: 137 mL/min/kg; half-life [4]: 19.1 min; Vd ([4]; read-out: VSS): 2.11 L/kg; efflux ratio (Caco-2 permeability): 4.27; half-life [5]: < 10 min
Cc1ccc(O)cc1Nc1ccnc(Nc2ccc(C(N)=O)cc2)n1 [Compound 2, 4-[[4-(5-hydroxy-2-methyl-anilino)pyrimidin-2-yl]amino]benzamide] | >360 min (all | 0.033 | 0.089 | 0.244 | 22 | 8 | 3 | 156 | Rapid clearance | >120 | >5 | Very high | 9 | 30 | 770 (≈ 258 µg/mL) | 
COc1ccc(S(N)(=O)=O)cc1Nc1nccc(N(C)c2ccc(N)cc2)n1 [Compound 3, 3-[[4-(4-amino-N-methyl-anilino)pyrimidin-2-yl]amino]-4-methoxy-benzenesulfonamide] | >360 min (all | 0.056 | 0.089 | 0.178 | 16 | 8 | 5 | > 3300 | Very stable | >120 | >5 | Very high | 55 | 83 | 13.3 (≈ 5.33 µg/mL) | Cartilage damage score, treated versus untreated mice ([7]; 8 and 12 weeks after DMM): significant differences; Morphology of articular cartilage ([7]; 8 weeks after DMM surgery): localized chondrocyte clusters, but no fibrillation; also recorded: only chondrocyte clusters; Average articular cartilage score ([7]; 8 weeks after DMM surgery): 1.00; Morphology of articular cartilage ([7]; 12 weeks after DMM surgery): only localized absence of the proteoglycans; also recorded: only localized proteoglycan degradation; Average articular cartilage score ([7]; 12 weeks after DMM surgery): 2.83; Progressive process of articular cartilage degeneration ([7]; DMM-induced, mouse knee joints): Significant delay; also recorded: dramatically delayed; Osteophytes and other abnormal morphology in subchondral bone and synovial tissue ([7]; mice with or without treatment): not observed; Mmp-13 positive (stained) cells in articular cartilage (Mmp-13): dramatically reduced; also recorded: significant reduction; DDR2 positive (stained) cells in articular cartilage (DDR2): dramatically reduced; also recorded: significant reduction
COc1cc(Nc2nccc(Nc3ccc(N)cc3)n2)cc(S(C)(=O)=O)c1 [Compound 4, N4-(4-aminophenyl)-N2-(3-methoxy-5-(methylsulfonyl)phenyl)pyrimidine-2,4-diamine] | >360 min (all | 0.022 | 0.122 | 0.233 | 21 | 11 | 2 | 1570 | Very stable | >120 | >5 |  | 66 | 87 | 213 (≈ 82.1 µg/mL) | 
